The test concerns the target T1, human liver GK (Homo sapiens, UniProt P35557).
T1 construct: GST (glutathione S-transferase) (N); made in house; host or cells: E. coli
T1 sequence (P35557 1-466 isoform P35557-2): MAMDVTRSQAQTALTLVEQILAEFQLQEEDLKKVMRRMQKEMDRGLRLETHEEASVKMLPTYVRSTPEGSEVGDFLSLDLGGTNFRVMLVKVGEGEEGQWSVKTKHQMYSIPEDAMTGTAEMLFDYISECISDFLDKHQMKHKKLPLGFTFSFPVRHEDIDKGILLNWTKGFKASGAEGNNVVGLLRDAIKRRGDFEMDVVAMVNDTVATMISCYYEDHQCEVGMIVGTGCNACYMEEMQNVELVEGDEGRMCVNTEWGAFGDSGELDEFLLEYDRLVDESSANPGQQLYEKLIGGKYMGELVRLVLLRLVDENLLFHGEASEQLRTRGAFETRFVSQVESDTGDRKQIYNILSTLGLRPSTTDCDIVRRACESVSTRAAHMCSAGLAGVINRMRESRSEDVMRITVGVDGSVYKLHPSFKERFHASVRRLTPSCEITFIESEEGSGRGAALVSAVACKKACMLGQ
The experiment in a line: GK activation test. Type of test: biochemical. Conditions: test compound concentration needed to activate 50% of maximum activation ability; 4 mM 14C-labeled glucose, 2 mM ATP, room temperature, 20 minutes. The procedure, abridged:
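GST-tagged human liver GK from E. coli (0.24 μg/well) with 4 mM 14C-glucose, 2 mM ATP in Hepes-KOH pH 7.1, KCl, MgCl2, DTT, 1% DMSO, 20 min room temperature. Labeled glucose 6-phosphate captured on anion resin, eluted and counted. EC50 = concentration giving half of maximal activation.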
As to `C[C@@H](/C=C(\c1ccc(S(=O)(=O)C2CC2)cc1)c1ccc(C(F)(F)F)c(=O)[nH]1)CO` [Example 1-101, 6-{(1E,3S)-1-[4-(Cyclopropylsulfonyl)phenyl]-4-hydroxy-3-methylbut-1-en-1-yl}-3-(trifluoromethyl)pyridin-2(1H)-one], the EC50 (commonly the concentration needed to bring the measured effect to its halfway point) was in the range of 3000 to 10000 nM.

Turning to `CC(C)(C)c1ccc(/C(=C\CCO)c2ccc(Cl)c(=O)[nH]2)cc1` [Example 6-24, 6-[(1E)-1-(4-tert-Butylphenyl)-4-hydroxybut-1-en-1-yl]-3-chloropyridin-2(1H)-one], the EC50 lay within 3000 to 10000 nM.

On to `CCc1ccc(/C(=C\[C@H]2CCC(=O)N2)c2ccc(C3CC3)c(=O)[nH]2)cc1` [Example 4-5, 3-Cyclopropyl-6-{(E)-1-(4-ethylphenyl)-2-[(2R)-5-oxopyrrolidin-2-yl]ethenyl}pyridin-2(1H)-one], for which the EC50 lay in the range of 10 to 500 nM.

For the compound `CC(C)Oc1ccc(C(C[C@H]2CCC(=O)N2)c2ccc(C3CC3)c(=O)[nH]2)cc1F` (single isomer, unassigned) [Example 4-350], the EC50 fell in the range of 10 to 500 nM.

As for `Cc1cc(C(C[C@H]2CCC(=O)N2)c2ccc(C3CC3)c(=O)[nH]2)ccc1F` (single isomer, unassigned) [Example 4-223], the EC50 was 500 to 3000 nM.

The compound `CC(C)Oc1ccc(/C(=C\[C@H]2CCC(=O)N2)c2ccc(Cl)c(=O)[nH]2)cc1Cl` [Example 4-32, 3-Chloro-6-{(E)-1-[3-chloro-4-(propan-2-yloxy)phenyl]-2-[(2R)-5-oxopyrrolidin-2-yl]ethenyl}pyridin-2(1H)-one] showed an EC50 of 10 to 500 nM.

For `CC(C)c1ccc(/C(=C/C2CCCC2)c2ccc(S(C)(=O)=O)cc2)[nH]c1=O` [Example 1-4, 6-{(E)-2-Cyclopentyl-1-[4-(methylsulfonyl)phenyl]ethenyl}-3-(propan-2-yl)pyridin-2(1H)-one], the EC50 was 10 to 500 nM.

`Cc1ccc(C(CC2CCCC2)c2ccc(S(=O)(=O)CCCO)c(Cl)c2)[nH]c1=O` (centres unmarked) [Example 2-14, 6-(1-{3-Chloro-4-[(3-hydroxypropyl)sulfonyl]phenyl}-2-cyclopentylethyl)-3-methylpyridin-2(1H)-one] came in with an EC50 of 500 to 3000 nM.

Take `Cc1cc(C(C[C@H]2CCC(=O)N2)c2ccc(C3CC3)c(=O)[nH]2)ccc1C(F)(F)F` (single isomer, unassigned) [Example 4-330]: the EC50 was in the range of 500 to 3000 nM.

For the compound `CSc1ccc(/C(=C\[C@H]2CCN(C(C)=O)C2)c2ccc(C3CC3)c(=O)[nH]2)cc1` [Example 4-39, 6-{(E)-2-[(3R)-1-Acetylpyrrolidin-3-yl]-1-[4-(methylsulfanyl)phenyl]ethenyl}-3-cyclopropylpyridin-2(1H)-one], the EC50 is 10 to 500 nM.

Compound `O=C1CC[C@H](/C=C(\c2ccc(S(=O)(=O)N3CCOCC3)cc2)c2ccc(C3CC3)c(=O)[nH]2)N1` [Example 4-138, 3-Cyclopropyl-6-{(E)-1-[4-(morpholin-4-ylsulfonyl)phenyl]-2-[(2R)-5-oxopyrrolidin-2-yl]ethenyl}pyridin-2(1H)-one] came in with an EC50 of 10 to 500 nM.

As for `CC(C)c1ccc(C(CC2CCCC2)c2ccc(S(C)(=O)=O)cc2)[nH]c1=O` (centres unmarked) [Example 2-12, 6-{2-Cyclopentyl-1-[4-(methylsulfonyl)phenyl]ethyl}-3-(propan-2-yl)pyridin-2(1H)-one], the EC50 lay within 500 to 3000 nM.

As to `CCc1ccc(/C(=C/C2CCCC2)c2ccc(SCCCN(CC)CC)c(Cl)c2)[nH]c1=O` [Example 1-26, 6-[(E)-1-(3-Chloro-4-{[3-(diethylamino)propyl]sulfanyl}phenyl)-2-cyclopentylethenyl]-3-ethylpyridin-2(1H)-one], the EC50 was 10 to 500 nM.

For the compound `CC(C)(C)c1ccc(/C(=C\CN2CCOCC2)c2ccc(Cl)c(=O)[nH]2)cc1` [Example 6-5, 6-[(1E)-1-(4-tert-Butylphenyl)-3-(morpholin-4-yl)prop-1-en-1-yl]-3-chloropyridin-2(1H)-one], the 50% effective concentration (EC50) lay in the range of 3000 to 10000 nM.

On to `Cc1ccc(C(CC2CCCC2)c2ccc(S(C)(=O)=O)c(Cl)c2)[nH]c1=O` (centres unmarked) [Example 2-5, 6-{1-[3-Chloro-4-(methylsulfonyl)phenyl]-2-cyclopentylethyl}-3-methylpyridin-2(1H)-one], for which the EC50 was 500 to 3000 nM.

`Cc1ccc(/C(=C\[C@H]2CCC(=O)N2)c2ccc(Cl)c(=O)[nH]2)cc1C` [Example 4-23, 3-Chloro-6-{(E)-1-(3,4-dimethylphenyl)-2-[(2R)-5-oxopyrrolidin-2-yl]ethenyl}pyridin-2(1H)-one]: the concentration for a half-maximal effect (EC50) lay in the range of 500 to 3000 nM.

For `CC(C)(C)c1ccc(C(C[C@H]2CCN(C(=O)C3CC3)C2)c2ccc(Cl)c(=O)[nH]2)cc1` (single isomer, unassigned) [Example 4-97], the EC50 is 3000 to 10000 nM.

`CSc1ccc(/C(=C/[C@H]2CCC(=O)N2)c2ccc(C(C)(C)C)cc2)[nH]c1=O` [Example 4-206, 6-{(E)-1-(4-tert-Butylphenyl)-2-[(2R)-5-oxopyrrolidin-2-yl]ethenyl}-3-(methylsulfanyl)pyridin-2(1H)-one] returned an EC50 of 10 to 500 nM.

`O=C1CC[C@H](/C=C(\c2ccc(S(=O)(=O)C3CC3)c(Cl)c2)c2ccc(C3CC3)c(=O)[nH]2)N1` [Example 4-289, 6-{(E)-1-[3-Chloro-4-(cyclopropylsulfonyl)phenyl]-2-[(2R)-5-oxopyrrolidin-2-yl]ethenyl}-3-cyclopropylpyridin-2(1H)-one] registered an EC50 of 10 to 500 nM.

In the case of `O=C1CC[C@H](/C=C(\c2ccc(O)c(Cl)c2)c2ccc(C3CC3)c(=O)[nH]2)N1` [Example 4-145, 6-{(E)-1-(3-Chloro-4-hydroxyphenyl)-2-[(2R)-5-oxopyrrolidin-2-yl]ethenyl}-3-cyclopropylpyridin-2(1H)-one], the EC50 lay within 10 to 500 nM.

Compound `CCOc1ccc(/C(=C\[C@H]2CCC(=O)N2)c2ccc(Cl)c(=O)[nH]2)cc1C(F)(F)F` [Example 4-51, 3-Chloro-6-{(E)-1-[4-ethoxy-3-(trifluoromethyl)phenyl]-2-[(2R)-5-oxopyrrolidin-2-yl]ethenyl}pyridin-2(1H)-one] displayed an EC50 of 500 to 3000 nM.

On to `CCOc1ccc(/C(=C\[C@H]2CCC(=O)N2)c2ccc(C3CC3)c(=O)[nH]2)c(Cl)c1` [Example 4-286, 6-{(E)-1-(2-Chloro-4-ethoxyphenyl)-2-[(2R)-5-oxopyrrolidin-2-yl]ethenyl}-3-cyclopropylpyridin-2(1H)-one], for which the EC50 lay in the range of 10 to 500 nM.

The compound `CN1CCN(S(=O)(=O)c2ccc(C(C[C@H]3CCC(=O)N3)c3ccc(Cl)c(=O)[nH]3)cc2)CC1` (stereo partly drawn) [Example 4-89, 3-Chloro-6-(1-{4-[(4-methylpiperazin-1-yl)sulfonyl]phenyl}-2-[(2R)-5-oxopyrrolidin-2-yl]ethyl)pyridin-2(1H)-one] displayed an EC50 of 3000 to 10000 nM.

Turning to `CSc1ccc(/C(=C\[C@H]2CCC(=O)C2)c2ccc(C(C)C)c(=O)[nH]2)cc1` [Example 1-64, 6-{(E)-1-[4-(Methylsulfanyl)phenyl]-2-[(1S)-3-oxocyclopentyl]ethenyl}-3-(propan-2-yl)pyridin-2(1H)-one], the EC50 lay in the range of 10 to 500 nM.

In turn, `CCc1ccc(C(C[C@H]2CCC(=O)N2)c2ccc(Cl)c(=O)[nH]2)cc1` (single isomer, unassigned) [Example 4-309] came in with a concentration giving a half-maximal response (EC50) of 3000 to 10000 nM.

For the compound `CC(C)c1ccc(/C(=C/[C@H]2CCC(=O)C2)c2ccc(S(C)(=O)=O)cc2)[nH]c1=O` [Example 1-107, 6-{(E)-1-[4-(Methylsulfonyl)phenyl]-2-[(1S)-3-oxocyclopentyl]ethenyl}-3-(propan-2-yl)pyridin-2(1H)-one], the EC50 lay within 10 to 500 nM.

The compound `CCc1ccc(/C(=C/[C@H]2CCC(=O)C2)c2ccc(SCCCO)c(Cl)c2)[nH]c1=O` [Example 1-75, 6-{(E)-1-{3-Chloro-4-[(3-hydroxypropyl)sulfanyl]phenyl}-2-[(1S)-3-oxocyclopentyl]ethenyl}-3-ethylpyridin-2(1H)-one] had an EC50 of 10 to 500 nM.

For `Cc1ccc(/C(=C/C2CCCC2)c2ccc(S(C)(=O)=O)c(Cl)c2)[nH]c1=O` [Example 1-19, 6-{(E)-1-[3-Chloro-4-(methylsulfonyl)phenyl]-2-cyclopentylethenyl}-3-methylpyridin-2(1H)-one], the EC50 is 10 to 500 nM.

On to `COc1ccc(/C(=C\C2CCOCC2)c2ccc(C3CC3)c(=O)[nH]2)cc1Cl` [Example 1-53, 6-[(E)-1-(3-Chloro-4-methoxyphenyl)-2-(tetrahydro-2H-pyran-4-yl)ethenyl]-3-cyclopropylpyridin-2(1H)-one], for which the EC50 was 500 to 3000 nM.

For `O=c1[nH]c(/C(=C/C2CCCC2)c2ccc(S(=O)(=O)C3CC3)cc2)ccc1Cl` [Example 1-104, 3-Chloro-6-{(E)-2-cyclopentyl-1-[4-(cyclopropylsulfonyl)phenyl]ethenyl}pyridin-2(1H)-one], the EC50 was in the range of 10 to 500 nM.

As for `CCS(=O)(=O)c1ccc(/C(=C\[C@H]2CCC(=O)N2)c2ccc(Cl)c(=O)[nH]2)cc1Cl` [Example 4-58, 3-Chloro-6-{(E)-1-[3-chloro-4-(ethylsulfonyl)phenyl]-2-[(2R)-5-oxopyrrolidin-2-yl]ethenyl}pyridin-2(1H)-one], the EC50 was in the range of 500 to 3000 nM.

Consider `CCN1CC(Sc2ccc(/C(=C\C3CCCC3)c3ccc(C)c(=O)[nH]3)cc2)C1` [Example 1-31, 6-[(E)-2-Cyclopentyl-1-{4-[(1-ethylazetidin-3-yl)sulfanyl]phenyl}ethenyl]-3-methylpyridin-2(1H)-one], for which the EC50 lay within 500 to 3000 nM.

Values taken from patent US8822503B2, “2-pyridone compounds” (Taisho Pharmaceutical Co., Ltd, priority 2009, dated 2014).
